Measured values published in US20190269771A1, “PEPTIDE MIMOTOPE THAT INDUCES AN IMMUNE RESPONSE AGAINST MYCOBACTERIUM TUBERCULOSIS LIPOARABINOMANNAN (LAM)” (priority 2017, published 2019).

How the values were obtained:
[1] = system: two monoclonal antibodies against M. tuberculosis lipoarabinomannan (LAM); test: Binding of recombinant M13 phages displaying the peptides to the anti-LAM mAbs; conditions: peptide displayed on the g3p minor coat protein of recombinant M13 phage
[2] = system: rabbit polyclonal anti-LAM antibody; test: Peptide ELISA binding assay with rabbit polyclonal anti-LAM antibody; conditions: for OD values, binding of rabbit polyclonal anti-LAM antibody by ELISA: coating 10 μg/ml
Experimental: The ELISA plate wells were coated with by adding each peptide (2 μg in 0.1M NaHCO3, pH 8.6) and incubating overnight at 4° C. After overnight incubation, plates were blocked with BSA (5 mg/ml) for 1 hour at 4° C. For controls, wells were coated with same amount of LAM or BSA. After washing with TBST, diluted 143 anti-LAM antibodies were added to the ELISA plate and incubated at room temperature for 1 hour. Plates were washed with TBST and HRP-conjugated secondary antibodies were added and incubated for 1 hour. After washing 3 times with TBST, 50 μl of the 1-Step™ Ultra TMB-ELISA (Thermo Scientific Co, Ltd) substrates was added in the dark. After color development, 50 μl of 2M sulfuric acid was added to stop the reaction and absorbance was measured at 450 nm.

[3] = system: Mouse anti-LAM antibodies; test: ELISA with serum from LAM vaccinated mice against various antigens; assay type: binding; conditions: Swiss-Webster mice vaccinated with LAM combined with alum; FIG. 2D
Experimental: To perform ELISAS, 96-well ELISA plates (Greiner Bio-One Catalogue #655-001) were coated with 10 μg of corresponding coating antigens: HS peptide, HSSR peptide, Baculovirus, SG peptide, SGSR peptide, or LAM resuspended in coating buffer (0.1M NaHCO3, pH 8.6). After overnight coating at 4° C., blocking (5% skim milk in PBS) was performed for 1 hour at room temperature. After washing 3 times with washing buffer (0.01% Tween-20 in PBS), mouse serum was added to the appropriate wells and binding proceeded at room temperature for 1 hour. […] After incubating for 1 hour at room temperature, the plate was washed 3 times with TBST and 50 μl 179 of the 1-Step™ Ultra TMB180 ELISA substrate (Thermo Scientific) was added. 50 ul of 2M sulfuric acid was then added to stop the reaction and absorbance was measured at 450 nm.

HSFKWLDSPRLR [HS peptide]
binding affinity with both mAbs [1]: strong binding affinity
OD values, binding of rabbit polyclonal anti-LAM antibody by ELISA ([2]; HS peptide experiment, FIG. 2B): 0.45

SGVYKVAYDWQH [SG peptide]
binding affinity with both mAbs [1]: strong binding affinity
OD values, binding of rabbit polyclonal anti-LAM antibody by ELISA ([2]; SG peptide experiment, FIG. 2C): 0.32

CISLTEWSMWYRH [Peptide P8, previously published LAM mimotope peptide, reference compound]
detection of KLH-conjugated peptide by rabbit anti-LAM polyclonal antibody above control ([2]; peptides conjugated to KLH vs scramble control, only at the 1:1000 dilution, FIG. 1B-E): could be specifically detected

KLH alone: keyhole limpet hemocyanin carrier protein [reference compound]
binding by serum from LAM vaccinated mice [3]: not
